# From patent US10131675B2 (Genentech, Inc., priority 2015, dated 2018)
# Target: DLK (Homo sapiens (Human), UniProt Q12852)
# Assay: DLK TR-FRET Inhibition Assay
# Type: biochemical
# Conditions: N-terminally GST-tagged DLK (catalytic domain amino acid 1-520), MKK4 K131M substrate, 30 μM ATP; read-out: DLK HTRF Ki
# Method: DLK kinase reactions (20 μL) containing 5 nM N-terminally GST-tagged DLK (catalytic domain amino acid 1-520) (Carna Bioscience), 40 nM N-terminally HIS tagged MKK4 K131M substrate, and 30 μM ATP in kinase reaction buffer (50 mM HEPES, pH 7.5, 0.01% Triton X-100, 0.01% Bovine γ-Globulins, 2 mM DTT, 10 mM MgCl2 and 1 mM EGTA), and testing compound 1:3 serial diluted starting at 20 uM were incubated at ambient temperature for 60 minutes in 384 well OptiPlate (Perkin Elmer). To quench kinase reactions and detect phosphorylated MKK4, 15 μL of TR-FRET antibody mixture containing 2 nM anti-phosphorylated MKK4 labeled with Europium cryptate (Cisbio) and 23 nM anti-HIS labeled with D2 (Cisbio) in detection buffer (25 mM Tris pH 7.5, 100 mM NaCl, 100 mM EDTA, 0.01% Tween-20, and 200 mM KF) was added to the reaction mixture. The detection mixture was incubated for 3 hours at ambient temperature and the TR-FRET was detected with an EnVision multilabel plate reader (Perkin-Elmer) using the LANCE/DELFIA Dual Enh label from Perkin-Elmer (excitation filter: UV2 (TRF) 320 and emission filters: APC 665 and Europium 615).
# Chain of DLK (Q12852 1-520): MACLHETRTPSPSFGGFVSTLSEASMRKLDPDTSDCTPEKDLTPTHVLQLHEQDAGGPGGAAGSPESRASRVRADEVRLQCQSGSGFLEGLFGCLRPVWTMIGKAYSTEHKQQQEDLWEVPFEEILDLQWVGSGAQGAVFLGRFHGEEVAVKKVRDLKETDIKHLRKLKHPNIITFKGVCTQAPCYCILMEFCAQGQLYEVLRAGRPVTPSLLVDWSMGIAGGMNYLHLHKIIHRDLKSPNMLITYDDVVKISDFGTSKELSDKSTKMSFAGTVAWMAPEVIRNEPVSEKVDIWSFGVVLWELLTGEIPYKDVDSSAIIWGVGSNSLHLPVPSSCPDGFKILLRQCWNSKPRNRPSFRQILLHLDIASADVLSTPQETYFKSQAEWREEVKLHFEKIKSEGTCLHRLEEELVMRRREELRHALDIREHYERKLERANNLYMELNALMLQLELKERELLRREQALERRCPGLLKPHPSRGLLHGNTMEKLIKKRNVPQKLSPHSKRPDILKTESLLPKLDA
row,Structure (SMILES),Ki [nM]
1,"Nc1ncc(-c2nc(N3CC4CC3C4)c3nc4n(c3n2)CCCOC4)cc1OC(F)F [Example 135, 5-(4-(2-azabicyclo[2.1.1]hexan-2-yl)-6,8,9,10-tetrahydro-[1,4]oxazepino[4,3-e]purin-2-yl)-3-(difluoromethoxy)pyridin-2-amine]",30.8
2,"COC1CN(c2nc(-c3cnc4[nH]cc(C#N)c4c3)nc3c2nc2n3CCOC2(C)C)C1 [Example 41, 5-[1-(3-Methoxy-azetidin-1-yl)-8,8-dimethyl-5,6-dihydro-8H-7-oxa-2,4,4b,9-tetraaza-fluoren-3-yl]-1H-pyrrolo[2,3-b]pyridin-3-carbonitrile]",30.8
3,"CO[C@@H]1CC2CC1CN2c1nc(-c2cnc(N)nc2)nc2c1nc1n2CCOC1(C)C (single isomer, unassigned) [Example 140]",72.7
4,CC1(C)OCCn2c1nc1c(N3CC4CC3C4)nc(-c3cnc(N)c(C#N)c3)cc12 [Example 144],2.23
5,"CN(c1nc(-c2cnc(N)nc2)nc2c1nc1n2CCOC1(C)C)C1CC1 [Example 60, 2-(2-aminopyrimidin-5-yl)-N-cyclopropyl-N,6,6-trimethyl-8,9-dihydro-6H-[1,4]oxazino[4,3-e]purin-4-amine]",207
6,"CC1(C)OCCn2c1nc1c(N3CC(O)C3)nc(-c3cnc4[nH]cc(Cl)c4c3)nc12 [Example 40, 1-[3-(3-Chloro-1H-pyrrolo[2,3-b]pyridin-5-yl)-8,8-dimethyl-5,6-dihydro-8H-7-oxa-2,4,4b,9-tetraaza-fluoren-1-yl]-azetidin-3-ol]",5.91
7,"CN(C)c1nc(-c2cnc3[nH]cc(C(F)(F)F)c3c2)nc2c1nc1n2CCCOC1 [Example 129, N,N-dimethyl-2-(3-(trifluoromethyl)-1H-pyrrolo[2,3-b]pyridin-5-yl)-6,8,9,10-tetrahydro-[1,4]oxazepino[4,3-e]purin-4-amine]",1.64
8,"CC1(C)OCCn2c1nc1c(N3CC4CC3C[C@H]4F)nc(-c3cnc(N)nc3)nc12 (single isomer, unassigned) [Example 142]",216
9,CC1(C)OCCn2c1nc1c(C3CC3)nc(-c3cnc(N)c(OC(F)F)c3)cc12 [Example 148],56.9
10,"C[C@@H]1Cn2c(nc3c(N4CC5CC4C5)nc(-c4cnc(N)nc4)nc32)C(C)(C)O1 (single isomer, unassigned) [Example 138]",82.5
11,"C[C@H]1CCCN1c1nc(-c2cnc(N)nc2)nc2c1nc1n2CCOC1(C)C [Example 53, 5-[8,8-Dimethyl-1-((S)-2-methyl-pyrrolidin-1-yl)-5,6-dihydro-8H-7-oxa-2,4,4b,9-tetraaza-fluoren-3-yl]-pyrimidin-2-ylamine]",479
12,CC1(C)OCCn2c1nc1c(N3CC(F)C3)nc(-c3cnc4[nH]cc(C(F)(F)F)c4c3)nc12 [Example 45],9.87
13,CC1(C)OCCn2c1nc1c(C3CC3)nc(-c3cnc(N)nc3)nc12 [Example 122],307
14,"CC1(C)OCCn2c1nc1c(N3CC4CC3C4)nc(-c3cnc(N)cn3)cc12 [Example 118, 5-(9-(2-azabicyclo[2.1.1]hexan-2-yl)-1,1-dimethyl-3,4-dihydro-1H-pyrido[3′,4′:4,5]imidazo[2,1-c][1,4]oxazin-7-yl)pyrazin-2-amine]",1200
15,"CN(c1nc(-c2cnc(N)nc2)nc2c1nc1n2CCOC1(C)C)C1CCC1 [Example 58, 2-(2-aminopyrimidin-5-yl)-N-cyclobutyl-N,6,6-trimethyl-8,9-dihydro-6H-[1,4]oxazino[4,3-e]purin-4-amine]",87.7
16,"C[C@@H]1CC[C@H](C)N1c1nc(-c2cnc(N)nc2)nc2c1nc1n2CCOC1(C)C [Example 55, 5-(4-((2R,5S)-2,5-dimethylpyrrolidin-1-yl)-6,6-dimethyl-8,9-dihydro-6H-[1,4]oxazino[4,3-e]purin-2-yl)pyrimidin-2-amine]",371
17,"CO[C@H]1CC2CC1CN2c1nc(-c2cnc(N)nc2)nc2c1nc1n2CCOC1(C)C (single isomer, unassigned) [Example 141]",392
18,"CC1(C)OCCn2c1nc1c(N3CC4CC3C4)nc(-c3cnc(N)nc3)nc12 [Example 46, 5-[1-(2-Aza-bicyclo[2.1.1]hex-2-yl)-8,8-dimethyl-5,6-dihydro-8H-7-oxa-2,4,4b,9-tetraaza-fluoren-3-yl]-pyrimidin-2-ylamine]",130
19,COC1CN(c2nc(-c3cnc4[nH]cc(C(F)(F)F)c4c3)nc3c2nc2n3CCCOC2)C1 [Example 145],6.49
20,CC1(C)OCCn2c1nc1c(N3CCC4(CCCO4)C3)nc(-c3cnc(N)nc3)nc12 (stereo not drawn) [Example 156],1300
21,"CC[C@@]1(C)OCCn2c1nc1c(N3CC4CC3C4)nc(-c3cnc(N)nc3)nc12 (single isomer, unassigned) [Example 93]",131
22,"CC1(C)OCCn2c1nc1c(C3(C#N)CCC3)nc(-c3cnc(N)nc3)nc12 [Example 103, 1-(2-(2-aminopyrimidin-5-yl)-6,6-dimethyl-8,9-dihydro-6H-[1,4]oxazino[4,3-e]purin-4-yl)cyclobutanecarbonitrile]",1000
23,"CC1(C)OCCn2c1nc1c(C3CC3)nc(-c3cnc(N)c4nc[nH]c34)nc12 [Example 127, 7-(4-cyclopropyl-6,6-dimethyl-8,9-dihydro-6H-[1,4]oxazino[4,3-e]purin-2-yl)-1H-imidazo[4,5-c]pyridin-4-amine]",150
24,"Cc1c[nH]c2ncc(-c3nc(N4CCC5(COC5)C4)c4nc5n(c4n3)CCOC5(C)C)cc12 [Example 30, 8,8-Dimethyl-3-(3-methyl-1H-pyrrolo[2,3-b]pyridin-5-yl)-1-(2-oxa-6-aza-spiro[3.4]oct-6-yl)-5,6-dihydro-8H-7-oxa-2,4,4b,9-tetraaza-fluorene]",10.2
25,"Cc1n[nH]c2ncc(-c3nc(N4CC5CC4C5)c4nc5n(c4n3)CCOC5(C)C)cc12 [Example 19, 1-(2-Aza-bicyclo[2.1.1]hex-2-yl)-8,8-dimethyl-3-(3-methyl-1H-pyrazolo[3,4-b]pyridin-5-yl)-5,6-dihydro-8H-7-oxa-2,4,4b,9-tetraaza-fluorene]",493
26,CC1(C)OCCn2c1nc1c(N3CC4CC3C4)nc(-c3cnc4[nH]cnc4c3)nc12 [Example 146],32.2
27,"CCc1n[nH]c2ncc(-c3nc(N4CC5CC4C5)c4nc5n(c4n3)CCOC5(C)C)cc12 [Example 20, 1-(2-Aza-bicyclo[2.1.1]hex-2-yl)-3-(3-ethyl-1H-pyrazolo[3,4-b]pyridin-5-yl)-8,8-dimethyl-5,6-dihydro-8H-7-oxa-2,4,4b,9-tetraaza-fluorene]",161
28,"CC1(C)OCCn2c1nc1c(N3CC4CC3C4)nc(-c3cnc4[nH]ccc4c3)nc12 [Example 23, 1-(2-Aza-bicyclo[2.1.1]hex-2-yl)-8,8-dimethyl-3-(1H-pyrrolo[2,3-b]pyridin-5-yl)-5,6-dihydro-8H-7-oxa-2,4,4b,9-tetraaza-fluorene]",57.7
29,CC1(C)OCCn2c1nc1c(OC3CCC3)nc(-c3cnc(N)nc3)nc12 [Example 88],330

# The next lines start with the values.
row,Ki [nM],Structure (SMILES)
1,360,"CC1(C)OCCn2c1nc1c(N3C[C@H]4CCC(F)(F)[C@H]4C3)nc(-c3cnc(N)nc3)nc12 (racemic) [Example 15, (±)-5-(4-((cis)-4,4-difluorohexahydrocyclopenta[c]-pyrrol-2(1H)-yl)-6,6-dimethyl-8,9-dihydro-6H-[1,4]oxazino[4,3-e]purin-2-yl)pyrimidin-2-amine]"
2,112,CC(C)c1c[nH]c2ncc(-c3nc(N4CCC(F)(F)C4)c4nc5n(c4n3)CCOC5(C)C)cc12 [Example 75]
3,885,"COC1CN(c2nc(-c3cnc4[nH]cnc4c3)nc3c2nc2n3CCOC2(C)C)C1 [Example 111, 2-(3H-imidazo[4,5-b]pyridin-6-yl)-4-(3-methoxyazetidin-1-yl)-6,6-dimethyl-8,9-dihydro-6H-[1,4]oxazino[4,3-e]purine]"
4,200,COc1cc(-c2nc(N3CC4CC3C4)c3nc4n(c3n2)CCOC4(C)C)cnc1N [Example 57]
5,497,CC1(C)OCCn2c1nc1c(N3CCC(F)(F)C3)nc(-c3cnc4ccnn4c3)nc12 [Example 83]
6,25.9,Cc1c[nH]c2ncc(-c3nc(N4CCC(F)(F)C4)c4nc5n(c4n3)CCOC5(C)C)cc12 [Example 74]
7,443,CCC(C)Oc1cc(-c2nc(N3CCC(F)(F)C3)c3nc4n(c3n2)CCOC4(C)C)cnc1N (stereo not drawn) [Example 80]
8,588,CC1(C)OCCn2c1nc1c(N3CCC(F)(F)C3)nc(-c3cnc(N)c(OCC4CC4)c3)nc12 [Example 77]
9,289,CCOc1cc(-c2nc(N3CC(F)(F)C3)c3nc4n(c3n2)CCOC4(C)C)cnc1N [Example 69]
10,104,CC(C)Oc1cc(-c2nc(N3CC(F)(F)C3)c3nc4n(c3n2)CCOC4(C)C)cnc1N [Example 71]
11,112,CC1(C)OCCn2c1nc1c(N3CC4CC3C4)nc(-c3cnc(N)c(C(F)(F)F)c3)nc12 [Example 150]
12,297,"CC1(C)OCCn2c1nc1c(N3C[C@@H](F)[C@@H](F)C3)nc(-c3cnc(N)nc3)nc12 [Example 29, 5-[1-(cis-3,4-Difluoro-pyrrolidin-1-yl)-8,8-dimethyl-5,6-dihydro-8H-7-oxa-2,4,4b,9-tetraaza-fluoren-3-yl]-pyrimidin-2-ylamine]"
13,379,"CC1(C)OCCn2c1nc1c(N3CC(O)C3)nc(-c3cnc4[nH]cnc4c3)nc12 [Example 109, 1-(2-(3H-imidazo[4,5-b]pyridin-6-yl)-6,6-dimethyl-8,9-dihydro-6H-[1,4]oxazino[4,3-e]purin-4-yl)azetidin-3-ol]"
